This is an account of results in PubChem BioAssay AID179 (DTP/NCI, 2004).

The experiment concerns CEM cells HIV-1 protection, formazan growth assay. Briefly: NCI AIDS Antiviral Assay. Particulars: for IC50: measured here: growth of uninfected CEM cells. Put shortly:
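Human CEM cells, uninfected and HIV-1-infected, received five drug concentrations, and growth was read by soluble formazan assay. Compounds giving at least 50% protection were retested; reproducible 100% protection defined confirmed active.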

SMILES strings stand for the structures. Calls of active or inactive are those of the source.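 The calls were made as follows: active = compounds giving half or more protection of infected cells from virus-caused growth loss, again on retest; inactive = the rest.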

In the case of `COc1ccc2[nH]c3c(C)c4ccnc(NCCCN(C)CCCNc5ccc6ncn7c8ccccc8c(=O)c5c67)c4c(C)c3c2c1`, the EC50 was over 0.0251 µM and the IC50 amounted to 0.00794 µM. `CC1CCC(=O)C(C(=O)CC2CC(=O)NC(=O)C2)C1` (stereo not given): the EC50 was over 200 µM and the IC50 is over 200 µM.

As to `c1ccc(CCN2CCc3[nH]c4ccccc4c3C2)cc1`, the EC50 was over 200 µM and the IC50 came out at 39.8 µM. The corresponding values for `O=c1[nH]nc(Nc2ccc(Cl)cc2)c2nnn(C3CCCCC3)c12` are over 200 µM and over 200 µM. The corresponding values for `CCOCC(/C=N/N=C(N)N)=N\N=C(N)N` are over 759 µM and over 759 µM. The corresponding values for `CC1=NN(c2ccccc2)C(=O)/C1=C\N1CC(=O)NC1=S` are over 200 µM and 87.1 µM. Regarding `O=S(=O)(O)C(O)CCC(O)S(=O)(=O)O` (stereo not given), the EC50 is over 200 µM and the IC50 came out at 40.7 µM.

With `Cc1ccc(-n2[nH]nc(C#N)c2=O)cc1`, the EC50 is over 200 µM and the IC50 is over 200 µM. For `CC(=O)NC1C(OCC(=O)NC(C)C(=O)NC(CCC(=O)NCCCCCNc2ccc([N+](=O)[O-])c3[nH]c4ccccc4c(=O)c23)C(N)=O)C(O)C(CO)OC1(C)OCc1ccccc1` (stereo not given), the EC50 is over 100 µM and the concentration for half-maximal inhibition (IC50) was 3.39 µM. As for `O=c1oc2cccnc2n1CCCCN1CCN(c2ccccc2)CC1`, the EC50 was over 200 µM and the IC50 stood at 126 µM. With `O=C(CCc1nc(=S)[nH][nH]1)Nc1ccc(Cl)c(Cl)c1`, the outcome was inactive.

In the case of `CC(=O)OCC1OC(N2C(c3ccccc3)=CC(c3ccco3)C(C#N)=C2S)C(OC(C)=O)C(OC(C)=O)C1OC(C)=O` (stereo not given), the EC50 is 178 µM and the IC50 is over 200 µM. The corresponding values for `Brc1ccc(OCc2ccccc2)c2ccccc12` are over 200 µM and 63.1 µM.

With `CCOC(=O)C1CCC(=O)N1C(=O)c1ccccc1` (stereo not given), the EC50 is over 200 µM and the IC50 was over 200 µM.

On to `CN(C(=O)C1=CCCCCC1)c1ccccc1I`, for which the EC50 was over 200 µM and the IC50 is 38.9 µM.

For the compound `Cc1cc([N+](=O)[O-])ccc1Sc1c2ccccc2nc2cc(Cl)ccc12`, the EC50 was over 19.1 µM and the IC50 is over 19.1 µM. For the compound `O=C1OC(=O)c2c1nc1ccccc1c2-c1ccccc1`, the result was inactive.

In the case of `CCOc1cc2c(cc1O)/C(=N/NS(=O)(=O)c1ccc(C)cc1)C[C@@H]1[C@@H]2CC[C@]2(C)[C@@H](O)CC[C@@H]12`, the EC50 was over 200 µM and the IC50 was determined as 0.229 µM. As to `Cc1c(N)nc(C(CC(N)=O)NCC(N)C(N)=O)nc1C(=O)NC(C(=O)NC(C)C(O)C(C)C(=O)NC(C(=O)NCCc1nc(-c2nc(C(=O)NCCCNC(C)c3ccccc3)cs2)cs1)C(C)O)C(OC1OC(CO)C(O)C(O)C1OC1OC(CO)C(O)C(OC(N)=O)C1O)c1cnc[nH]1` (stereo not given), the result was inactive.

On to `O=C1C=CC(=O)c2c1ccc1c3ccccc3n(CCCCCCCCCCCCn3c4ccccc4c4ccc5c(c43)C(=O)C=CC5=O)c21`, for which the EC50 was over 100 µM and the IC50 amounted to 72.4 µM.

As for `COC(=O)NC1C(C)OC(OC2C/C=C(/C)C3C=CC4C(OC5CC(OC6CC(O)C(OC7CC(O)C(OC)C(C)O7)C(C)O6)C(O)C(C)O5)C(C)CC(C)C4C3(C)/C(O)=C3\C(=O)OC4(CC(C)C(CO)=CC4/C=C\2C)C3=O)CC1(C)[N+](=O)[O-]` (stereo not given), the EC50 was over 209 µM and the IC50 was found to be 4.79 µM.

For `CC(=O)N1CCC2(c3ccccc3N(C(C)=O)C2c2ccc(O)cc2)C1C(=O)O` (stereo not given), the result was inactive.

Consider `O=C(O)C1CCN1Cc1ccc2ccccc2c1O` (stereo not given), for which the EC50 was over 200 µM and the IC50 was determined as 195 µM. On to `CN(C(=O)C12C3C4C1C1C2C3C41C(=O)O)C(C)(C)C` (stereo not given), for which the outcome was inactive.

Consider `COP(=O)(OC)/C(C#N)=C/c1ccco1`, for which the EC50 was over 1100 µM and the IC50 was 832 µM. As to `CC1=NN(c2ccccc2)C(=O)C1N=Nc1ccc(S(=O)(=O)Nc2cc(C)nc(C)n2)cc1` (stereo not given), the result was inactive. With `O=S(=O)(Sc1ccc(Cl)cc1)c1ccc(Cl)cc1`, the EC50 was over 20 µM and the concentration for half-maximal inhibition (IC50) was 4.27 µM. For `CN(C)/C=N/c1nc2ncn(CCOC(=O)c3ccccc3)c2c(=O)[nH]1`, in that order: over 708 µM and over 708 µM. The corresponding values for `O=C(Nc1nc(C23CC4CC(CC(C4)C2)C3)cs1)c1c(O)c2ccccc2[nH]c1=O` are over 200 µM and over 200 µM.

With `CC(C)(C)NC(=O)CCC(=O)O`, the EC50 is over 200 µM and the IC50 is 110 µM. For `S=C1NNC2(C(=S)N1)c1ccccc1-c1ccccc12`, in that order: over 200 µM and 87.1 µM. The corresponding values for `C=C(C)C(C(=O)OC(c1ccccc1)c1ccccc1)N1C(=O)C(NC(=O)COc2ccccc2)C1SSC(C)(C)C` (stereo not given) are over 200 µM and 72.4 µM. Turning to `Cc1c2ccccc2c(CSCCC(N)C(=O)O)c2ccccc12` (stereo not given), the EC50 is over 200 µM and the IC50 was over 200 µM. In the case of `CCn1c(=O)c(N=O)c(N)n(CCO)c1=O`, the EC50 is over 200 µM and the 50% inhibitory concentration (IC50) is over 200 µM. As for `Nc1cnc(N2CCN(c3ncc(N)cc3N)CC2)c(N)c1`, the EC50 was over 95.5 µM and the IC50 was 77.6 µM. `C=C1CC2CC(O)CC(C1)C2` (stereo not given): the result was inactive. For `CCOC(=O)C1C(c2ccc(Br)cc2)N(Cc2ccccc2)C(c2ccc(Br)cc2)C(C(=O)OC)S1(=O)=O` (stereo not given), the EC50 is over 2.19 µM and the concentration for half-maximal inhibition (IC50) was over 2.19 µM.

On to `CC(C)=CC(=O)CC(=O)C(=O)NCCNC(=O)C(=O)CC(=O)C=C(C)C`, for which the EC50 is over 2.09 µM and the half-inhibitory concentration (IC50) is over 2.09 µM. For `CCOC12SC(=Nc3ccc(C)cc3)NN1C(=S)N(C)N=C2C` (stereo not given), the EC50 was over 200 µM and the half-inhibitory concentration (IC50) is over 200 µM.

For `Cn1c2ccccc2c2nnc(SCCN3CCOCC3)nc21`, the EC50 is over 200 µM and the IC50 is over 200 µM. As to `COc1ccc2c(c1)C(=O)CC(C(=O)O)C2` (stereo not given), the EC50 was over 1120 µM and the IC50 was over 1120 µM. As for `O=C(Nc1ccc([N+](=O)[O-])cc1)N(c1cc(Cl)ccn1)C1CCCCC1`, the EC50 is over 200 µM and the IC50 was 11 µM. The corresponding values for `Cc1ccc(S(=O)(=O)c2[nH]cc(/C(=C\C3CCCCC3)[N+](=O)[O-])c2C2CCCCC2)cc1` are over 2 µM and 1.15 µM.

Regarding `NC1=NN(c2ccccc2)C(=O)C1/C(=N\NC(=O)c1cc2ccccc2cc1O)C(=O)Nc1ccc(Cl)cc1` (stereo not given), the EC50 is over 6.92 µM and the IC50 is over 6.92 µM.

With `O=C(Nc1cc(Cl)c(Cl)cc1Cl)C(=O)C(C(=O)c1ccccc1)C1OC(=O)c2ccccc21` (stereo not given), the outcome was inactive. The same measure, in the same setting: the entry for `N/C(=N\N=C/c1ccc(OCc2ccccc2)cc1)NO` is “inactive”. `O=C(Nc1cccc(-c2nc3ccccc3[nH]2)c1)c1ccc(C(=O)Nc2cccc(-c3nc4ccccc4[nH]3)c2)cc1`: the EC50 is over 200 µM and the IC50 was found to be 91.2 µM. With `Clc1ccc(C2SCc3nc4ccccc4n32)cc1Cl` (stereo not given), the result was inactive. As for `CC1C(=O)NC(=O)NC1=O`, the EC50 is over 200 µM and the IC50 was over 200 µM. For `CCCCCCCCCC[C@@H](OC(C)=O)[C@@H]1CC[C@@H]([C@@H]2CC[C@@H]([C@@H](O)CC#C/C=C/CCCCCCC[C@@]3(Sc4ccccc4)C[C@H](C)OC3=O)O2)O1`, the EC50 is over 200 µM and the IC50 was 182 µM. The corresponding values for `COc1ccc(C23OCCN2C(=O)c2ccccc23)cc1` (stereo not given) are over 200 µM and 19.1 µM.

`CCC1C2C=CC(CC2)N1S(=O)(=O)c1ccc(C)cc1` (stereo not given): the EC50 is over 64.6 µM and the IC50 turned out to be 36.3 µM.

Regarding `CC1=NN(c2ccccc2)C(=O)CC1`, the EC50 was over 1320 µM and the IC50 was over 1320 µM.

As to `COc1ccc(-c2c(N3CCOCC3)oc3cc(N4CCOCC4)c(O)cc23)cc1`, the EC50 is over 200 µM and the IC50 was 10.2 µM. For `CC(C)(C1=NC(C(C)(C)C)CO1)C1=N[C@@H](C(C)(C)C)CO1` (stereo not given in full), in that order: over 251 µM and over 251 µM. For `CCc1nc(N)c2nc(-c3ccc(C#N)cc3)oc2n1`, in that order: over 100 µM and over 100 µM. The corresponding values for `O=C1/C(=C/c2ccc(Br)s2)NC(=S)N1c1ccccc1` are over 200 µM and 95.5 µM. Consider `CCOC(=O)C(C(=O)OCC)C(C(=O)OCC)C(=O)OCC`, for which the EC50 was over 200 µM and the IC50 was over 200 µM.

`CC(=O)C(O)N1C(=O)C=CC1=O` (stereo not given): the EC50 is over 50.1 µM and the IC50 is 1.86 µM. For `COc1ccc(NC(C)=O)cc1N1C(=O)/C(=C\c2cccc(Oc3ccccc3)c2)SC1c1ccccc1` (stereo not given), in that order: over 200 µM and 18.6 µM.

`CC(=O)C(=Cc1cccc(Br)c1)C(C)=O`: the EC50 was over 135 µM and the IC50 came out at 7.41 µM. The corresponding values for `Cc1cc(S(N)(=O)=O)c(SCc2nc(N)nc(N(C)C)n2)cc1Cl` are over 200 µM and over 200 µM. The corresponding values for `CCOC(=O)NP(=O)(N1CC1)N1CC1` are over 200 µM and over 200 µM. For `CN1CCN(CCC=C2c3ccccc3Sc3ccc(S(=O)(=O)N(C)C)cc32)CC1`, in that order: over 200 µM and 11.7 µM. As for `CC(Cn1c2c(c3cc(O)ccc31)CCc1ccc(O)cc1-2)N(C)C` (stereo not given), the EC50 is over 200 µM and the IC50 is 12 µM. With `CSc1ccc(/C=C/c2ccnc3ccccc23)cc1`, the EC50 is over 13.5 µM and the IC50 is over 13.5 µM. With `Fc1ccccc1C1SCc2nc3cc4ccccc4cc3n21` (stereo not given), the EC50 was over 200 µM and the 50% inhibitory concentration (IC50) came to 75.9 µM. For `CN(C)c1cc(CN[C@@H](Cc2cn(C(c3ccccc3)(c3ccccc3)c3ccccc3)cn2)C(=O)O)nc(CN[C@@H](Cc2cn(C(c3ccccc3)(c3ccccc3)c3ccccc3)cn2)C(=O)O)c1`, in that order: over 100 µM and 19.5 µM. For `CC(=O)C1=C2SCCN2C(=O)CC1`, in that order: over 135 µM and over 135 µM.

Take `O=C(O)CCCCCCCCCc1ccccc1`: the EC50 was over 200 µM and the IC50 was determined as 107 µM.
